Experimental data from patent EP3915971A1, “PHENYL-S(O)N-PHENYLAMIDINES AND THE USE THEREOF AS FUNGICIDES” (Bayer Aktiengesellschaft, priority 2020, dated 2021).

Key:
[1] = LogP measurement by HPLC on reversed phase columns (EEC directive 79/831 Annex V.A8); format: physicochemical
Procedure: Measurement of LogP values was performed according to EEC directive 79/831 Annex V.A8 by HPLC (High Performance Liquid Chromatography) on reversed phase columns with the following methods: • ^[a] LogP value is determined by measurement of LC-UV, in an acidic range, with 0.1% formic acid in water and acetonitrile as eluent (linear gradient from 10% acetonitrile to 95% acetonitrile). • ^[b] LogP value is determined by measurement of LC-UV, in a neutral range, with 0.001 molar ammonium acetate solution in water and acetonitrile as eluent (linear gradient from 10% acetonitrile to 95% acetonitrile). • ^[c] LogP value is determined by measurement of LC-UV, in an acidic range, with 0.1% phosphoric acid and acetonitrile as eluent (linear gradient from 10% acetonitrile to 95% acetonitrile).
If more than one LogP value is available within the same method, all the values are given and separated by "+". […]

[2] = test system: Phakospora pachyrhizi; experiment: in vivo preventive test on Phakospora pachyrhizi (soybean rust); settings: for pest or weed control at 500 ppm: Glycine max, 264 h, 500 ppm of active ingredient, preventive spray on young soybean plants, inoculation after 24 hours, evaluated 11 days after inoculation, 0% = control plants, 100% = no disease, read-out: efficacy
Procedure: Example A: in vivo preventive test on Phakospora pachyrhizi (soybean rust) [table] The active ingredients were made soluble and homogenized in a mixture of Dimethyl sulfoxide/Acetone/ /Tween® 80 and then diluted in water to the desired concentration. The young plants of soybean were treated by spraying the active ingredient prepared as described above. Control plants were treated only with an aqueous solution of Acetone/Dimethyl sulfoxide/ Tween® 80. After 24 hours, the plants were contaminated by spraying the leaves with an aqueous suspension of Phakospora pachyrhizi spores. The contaminated soybean plants were incubated for 24 hours at 24°C and at 100% relative humidity and then for 10 days at 24°C and at 70-80% relative humidity. The test was evaluated 11 days after the inoculation. 0% means an efficacy which corresponds to that of the control plants while an efficacy of 100% means that no disease was observed.

[3] = reversed phase HPLC columns, method [a]: LC-UV, acidic range, 0.1% formic acid in water and acetonitrile as eluent (linear gradient 10% to 95% acetonitrile)

| Structure (SMILES) | chromatographic logP ([1]; method [a]: LC-UV, acidic range, 0.1% formic acid in water and acetonitrile as eluent (linear gradient 10% to 95% acetonitrile)) | efficacy ([2]; 500 ppm) | chromatographic logP [1, 3] | pest or weed control at 500 ppm [2] | chromatographic logP ([1]; reversed phase HPLC columns, method [b]: LC-UV, neutral range, 0.001 molar ammonium acetate solution in water and acetonitrile as eluent (linear gradient 10% to 95% acetonitrile)) |
| --- | --- | --- | --- | --- | --- |
| CCN(C)C=Nc1cc(C)c([S+]([O-])c2ccccc2C#N)cc1C (centres unmarked) [Example I-052, N'-[4-(2-cyanophcnyl)sulfinyl-2,5-dimethylphenyl]-N-ethyl-N-methylmethanimidamide] | 0.73 | at least 70% | – | – | – |
| CCN(C)C=Nc1cc(Br)c(Sc2ccccc2C)cc1C [Example I-042, N'-[5-bromo-2-methyl-4-[(2-methylphenyl)thio]phenyl]-N-ethyl-N-methylmethanimidamide] | – | – | 1.81 | ≥ 70% | – |
| CCN(C)C=Nc1cc(C)c(Sc2ccccc2Cl)cc1Cl [Example I-007, N'-[2-chloro-4-[(2-chlorophenyl)thio]-5-methylphenyl]-N-ethyl-N-methylmethanimidamide] | – | – | 1.83 | ≥ 70% | – |
| CCN(C)C=Nc1cc(F)c(Sc2ccccc2)cc1C [Example I-021, N-ethyl-N'-(5-fluoro-2-methyl-4-phenylsulfanylphenyl)-N-methylmethanimidamide] | – | – | 1.53 | ≥ 70% | – |
| CCN(C)C=Nc1cc(Br)c(Sc2ccccc2)cc1C [Example I-039, N'-(5-bromo-2-methyl-4-phenylsulfanylphenyl)-N-ethyl-N-methylmethanimidamide] | – | – | 1.66 | ≥ 70% | – |
| CCN(C)C=Nc1cc(Br)c(Sc2ccccc2C#N)cc1C [Example I-068, N'-[5-bromo-4-[(2-cyanophenyl)thio]-2-methylphenyl]-N-ethyl-N-methylmethanimidamide] | – | – | 1.53 | ≥ 70% | – |
| CCN(C)C=Nc1cc(Br)c(Sc2ccccc2Cl)cc1C [Example I-047, N'-[5-bromo-4-[(2-chlorophenyl)thio]-2-methylphenyl]-N-ethyl-N-methylmethanimidamide] | – | – | 1.84 | ≥ 70% | – |
| CCN(C)C=Nc1cc(Cl)c(S(=O)(=O)c2ccccc2F)cc1C [Example I-026, N'-[5-chloro-4-(2-fluorophenyl)sulfonyl-2-methylphenyl]-N-ethyl-N-methylmethanimidamide] | – | – | 1.42 | ≥ 70% | – |
| CCN(C)C=Nc1cc(C)c(S(=O)(=O)c2ccccc2Cl)cc1C [Example I-020, N'-[4-(2-chlorophenyl)sulfonyl-2,5-dimethylphenyl]-N-ethyl-N-methylmethanimidamide] | – | – | 1.18 | ≥ 70% | – |
| CCN(C)C=Nc1cc(C)c(Sc2ccccc2F)cc1C1CC1 [Example I-097, N'-[2-cyclopropyl-4-[(2-fluorophenyl)thio]-5-methylphenyl]-N-ethyl-N-methylmethanimidamide] | – | – | 1.8 | ≥ 70% | – |
| CCN(C)C=Nc1cc(C)c(Sc2ccccc2F)cc1Br [Example I-077, N'-[2-bromo-4-[(2-fluorophenyl)thio]-5-methylphenyl]-N-ethyl-N-methylmethanimidamide] | – | – | 1.75 | ≥ 70% | – |
| CCc1cc(S(=O)(=O)c2ccccc2C)c(C)cc1N=CN(C)CC [Example I-091, N-ethyl-N'-[2-ethyl-5-methyl-4-(2-methylphenyl)sulfonylphenyl]-N-methylmethanimidamide] | – | – | 1.37 | ≥ 70% | – |
| CCN(C)C=Nc1cc(Cl)c(Sc2ccccc2F)cc1C [Example I-024, N'-[5-chloro-4-[(2-fluorophenyl)thio]-2-methylphenyl]-N-ethyl-N-methylmethanimidamide] | – | – | 1.61 | ≥ 70% | – |
| CCN(C)C=Nc1cc(Cl)c(Sc2ccccc2C)cc1C [Example I-025, N'-[5-chloro-2-methyl-4-[(2-methylphenyl)thio]phenyl]-N-ethyl-N-methylmethanimidamide] | – | – | 1.81 | ≥ 70% | – |
| CCN(C)C=Nc1cc(C#N)c(Sc2ccccc2C)cc1C [Example I-058, N'-[5-cyano-2-methyl-4-[(2-methylphenyl)thio]phenyl]-N-ethyl-N-methylmethanimidamide] | – | – | 1.61 | ≥ 70% | – |
| CCN(C)C=Nc1cc(Cl)c(Sc2ccccc2Cl)cc1C [Example I-066, N'-[5-chloro-4-[(2-chlorophenyl)thio]-2-methylphenyl]-N-ethyl-N-methylmethanimidamide] | – | – | 1.84 | ≥ 70% | – |

| Structure (SMILES) | chromatographic logP ([1]; method [a]: LC-UV, acidic range, 0.1% formic acid in water and acetonitrile as eluent (linear gradient 10% to 95% acetonitrile)) | efficacy ([2]; 500 ppm) | chromatographic logP [1, 3] | pest or weed control at 500 ppm [2] | chromatographic logP ([1]; reversed phase HPLC columns, method [b]: LC-UV, neutral range, 0.001 molar ammonium acetate solution in water and acetonitrile as eluent (linear gradient 10% to 95% acetonitrile)) |
| --- | --- | --- | --- | --- | --- |
| CCN(C)C=Nc1cc(C)c(Sc2ccccc2Cl)cc1Br [Example I-098, N'-[2-bromo-4-[(2-chlorophenyl)thio]-5-methylphenyl]-N-ethyl-N-methylmethanimidamide] | – | – | 2.05 | ≥ 70% | – |
| CCN(C)C=Nc1cc(C#N)c(Sc2ccccc2)cc1C [Example I-054, N'-(5-cyano-2-methyl-4-phenylsulfanylphenyl)-N-ethyl-N-methylmethanimidamide] | – | – | 1.42 | ≥ 70% | – |
| CCN(C)C=Nc1cc(C)c(Sc2ccccc2C#N)cc1C(C)C [Example I-101, N'-[4-[(2-cyanophenyl)thio]-2-isopropyl-5-methylphenyl]-N-ethyl-N-methylmethanimidamide] | – | – | 1.72 | ≥ 70% | 5.3 |
| CCN(C)C=Nc1cc(C)c(Sc2ccccc2C)cc1Br [Example I-078, N'-[2-bromo-5-methyl-4-[(2-methylphenyl)thio]phenyl]-N-ethyl-N-methylmethanimidamide] | – | – | 1.92 | ≥ 70% | – |
| CCN(C)C=Nc1cc(C)c(Sc2ccccc2C)cc1Cl [Example I-006, N'-[2-chloro-5-methyl-4-[(2-methylphenyl)thio]phenyl]-N-ethyl-N-methylmethanimidamide] | – | – | 1.77 | ≥ 70% | – |
| CCN(C)C=Nc1cc(Br)c(S(=O)(=O)c2ccccc2Cl)cc1C [Example I-044, N'-[5-bromo-4-(2-chlorophenyl)sulfonyl-2-methylphenyl]-N-ethyl-N-methylmethanimidamide] | – | – | 1.58 | ≥ 70% | – |
| CCN(C)C=Nc1cc(C)c(Sc2ccccc2C#N)cc1C [Example I-069, N'-[4-[(2-cyanophenyl)thio]-2,5-dimethylphenyl]-N-ethyl-N-methylmethanimidamide] | – | – | 1.42 | ≥ 70% | – |
| CCN(C)C=Nc1cc(F)c(Sc2ccccc2C)cc1C [Example I-022, N-ethyl-N'-[5-fluoro-2-methyl-4-[(2-methylphenyl)thio]phenyl]-N-methylmethanimidamide] | – | – | 1.66 | ≥ 70% | – |
| CCN(C)C=Nc1cc(C)c(S(=O)(=O)c2ccccc2F)cc1C [Example I-017, N-ethyl-N'-[4-(2-fluorophenyl)sulfonyl-2,5-dimethylphenyl]-N-methylmethanimidamide] | – | – | 1.07 | – | – |
| CCN(C)C=Nc1cc(C)c([S+]([O-])c2ccccc2F)cc1Cl (centres unmarked) [Example I-014, N'-[2-chloro-4-(2-fluorophenyl)sulfinyl-5-methylphenyl]-N-ethyl-N-methylmethanimidamide] | – | – | 0.94 | – | – |
| CCN(C)C=Nc1cc(C)c(S(=O)(=O)c2ccccc2F)cc1C1CC1 [Example I-096, N'-[2-cyclopropyl-4-(2-fluorophenyl)sulfonyl-5-methylphenyl]-N-ethyl-N-methylmethanimidamide] | – | – | 1.27 | – | – |
| CCN(C)C=Nc1cc(Br)c(S(=O)(=O)c2ccccc2C#N)cc1C [Example I-070, N'-[5-bromo-4-(2-cyanophenyl)sulfonyl-2-methylphenyl]-N-ethyl-N-methylmethanimidamide] | – | – | 1.34 | – | – |
| CCN(C)C=Nc1cc(Cl)c(S(=O)(=O)c2ccccc2C)cc1C [Example I-034, N'-[5-chloro-2-methyl-4-(2-methylphenyl)sulfonylphenyl]-N-ethyl-N-methylmethanimidamide] | – | – | 1.5 | – | – |
| CCN(C)C=Nc1cc(C#N)c([S+]([O-])c2ccccc2C)cc1C (centres unmarked) [Example I-057, N'-[5-cyano-2-methyl-4-(2-methylphenyl)sulfinylphenyl]-N-ethyl-N-methylmethanimidamide] | – | – | 1.28 | – | – |
| CCN(C)C=Nc1cc(C)c(Sc2ccccc2C)cc1C(F)(F)F [Example I-083, N-ethyl-N-methyl-N'-[5-methyl-4-[(2-methylphenyl)thio]-2-(trifluoromethyl)phenyl]methanimidamide] | – | – | 2.62 | – | – |
